Source: patent US20240269304A1, “BCL-XL INHIBITOR ANTIBODY-DRUG CONJUGATES AND METHODS OF USE THEREOF” (Novartis AG, priority 2020, published 2024)
Like-named read-outs stand apart in the source and are kept apart here.

Tested on: H1650 cells
Test: CellTiterGlo (CTG) cell viability, 3D, 120 h, H1650 (Example 8)
Format: cell-based, human
Procedure: H1650 cells were cultivated in RPMI supplemented with 10% heat inactivated fetal bovine serum, penicillin (100 IU/ml), streptomycin (100 μg/ml) and L-glutamine (2 mM). Cell lines were cultured at 37° C. in a humidified atmosphere containing 5% 002. Cells were seeded in 96 microwell round bottom plates (96 microwell Low attachment plates , Costar reference 7007) and exposed to the payloads or ADCs for 120 h (serially diluted; 9 concentrations each, duplicates). Effects of payloads or ADCs on cell viability were assessed after 5 days of incubation at 37° C./5% CO2 by quantification of cellular ATP levels using CellTiterGlo at 75 μL reagent/well. All the conditions were tested in duplicates. Luminescence was quantified on a multipurpose plate reader. IC50S were calculated using standard four-parametric curve fitting. […] Each experiment was performed at least twice, with results being reproducible.

[1] = Homo sapiens, NCI-H1650, H1650 3D, experiment n1, read-out: H1650 3D CTG IC50 n1
[2] = Homo sapiens, NCI-H1650, H1650 3D, experiment n2, read-out: H1650 3D CTG IC50 n2
[3] = Homo sapiens, NCI-H1650, H1650 3D, mean of n1 and n2, read-out: H1650 3D CTG IC50 Mean of n1 and n2
[4] = H1650 3D, experiment n1, read-out: H1650 3D CTG IC50 n1
[5] = H1650 3D, experiment n2, read-out: H1650 3D CTG IC50 n2
[6] = H1650 3D, mean of n1 and n2, read-out: H1650 3D CTG IC50 Mean of n1 and n2

SMILES	IC50 [1]	IC50 [2]	IC50 [3]	IC50 [4]	IC50 [5]	IC50 [6]
Cc1cc(N(C)c2ccc(-c3cnn(C[C@]45C[C@]6(C)C[C@](C)(C4)C[C@@](OCCNCCCO)(C6)C5)c3C)c(C(=O)O)n2)nnc1Nc1nc2ccccc2s1 [P26, 6-[[6-(1,3-benzothiazol-2-ylamino)-5-methyl-pyridazin-3-yl]-methyl-amino]-3-[1-[[3-[2-(3-hydroxypropylamino)ethoxy]-5,7-dimethyl-1-adamantyl]methyl]-5-methyl-pyrazol-4-yl]pyridine-2-carboxylic acid]	0.68 nM	0.69 nM	0.69 nM			
Cc1c(Nc2nc3ccccc3s2)nnc2c1CCCN2c1nc(C(=O)O)c(CCCOc2ccc(C#CCN(C)CC[C@H](O)CO)cc2F)s1 [P34, 2-[3-(1,3-benzothiazol-2-ylamino)-4-methyl-6,7-dihydro-5H-pyrido[2,3-c]pyridazin-8-yl]-5-[3-[4-[3-[[(3S)-3,4-dihydroxybutyl]-methyl-amino]prop-1-ynyl]-2-fluoro-phenoxy]propyl]thiazole-4-carboxylic acid]	0.65 nM	0.87 nM	0.76 nM			
Cc1c(Nc2nc3ccccc3s2)nnc2c1CCCN2c1nc(C(=O)O)c(CCCOc2ccc(C#CCNCCN(C)C)cc2F)s1 [P12, 2-[3-(1,3-Benzothiazol-2-ylamino)-4-methyl-6,7-dihydro-5H-pyrido[2,3-c]pyridazin-8-yl]-5-[3-[4-[3-[2-(dimethylamino)ethylamino]prop-1-ynyl]-2-fluoro-phenoxy]propyl]thiazole-4-carboxylic acid]	0.95 nM	2 nM	1.48 nM			
Cc1c(Nc2nc3ccccc3s2)nnc2c1CCCN2c1ccc(-c2cnn(CC34CC5(C)CC(C)(C3)CC(OCCN3CCCC3)(C5)C4)c2C)c(C(=O)NC(C)C)n1 [P75, 6-[3-(1,3-benzothiazol-2-ylamino)-4-methyl-6,7-dihydro-5H-pyrido[2,3-c]pyridazin-8-yl]-3-[1-[[3,5-dimethyl-7-(2-pyrrolidin-1-ylethoxy)-1-adamantyl]methyl]-5-methyl-pyrazol-4-yl]-N-isopropyl-pyridine-2-carboxamide]	2.3 nM	3.03 nM	2.67 nM			
Cc1cc(N(C)c2nc(C(=O)[O-])c(CCCOc3ccc(C#CC[N+](C)(C)Cc4ccc(NC(=O)[C@H](C)NC(=O)[C@@H](NC(=O)CCOCCN5C(=O)CC(C)C5=O)C(C)C)cc4CC[C@@H]4O[C@H](C(=O)O)[C@@H](O)[C@H](O)[C@H]4O)cc3F)s2)nnc1Nc1nc2ccccc2s1 (stereo partly drawn) [Ab C - L106A-P2]				1 nM	0.7 nM	0.85 nM
Cc1c(Nc2nc3ccccc3s2)nnc2c1CCCN2c1ccc(-c2cnn(CC34CC5(C)CC(C)(CC(CCCN(C)CCCC(=O)O)(C5)C3)C4)c2C)c(C(=O)O)n1 [P58, 6-[3-(1,3-benzothiazol-2-ylamino)-4-methyl-6,7-dihydro-5H-pyrido[2,3-c]pyridazin-8-yl]-3-[1-[[3-[3-[3-carboxypropyl(methyl)amino]propyl]-5,7-dimethyl-1-adamantyl]methyl]-5-methyl-pyrazol-4-yl]pyridine-2-carboxylic acid]	5.73 nM	9.08 nM	7.41 nM			
COCCCNCCCC12CC3(C)CC(C)(C1)CC(Cn1ncc(-c4ccc(N5CCCc6c5nnc(Nc5nc7ccccc7s5)c6C)nc4C(=O)O)c1C)(C3)C2 [P51, 6-[3-(1,3-benzothiazol-2-ylamino)-4-methyl-6,7-dihydro-5H-pyrido[2,3-c]pyridazin-8-yl]-3-[1-[[3-[3-(3-methoxypropylamino)propyl]-5,7-dimethyl-1-adamantyl]methyl]-5-methyl-pyrazol-4-yl]pyridine-2-carboxylic acid]	1.97 nM	2.83 nM	2.4 nM			
Cc1c(Nc2nc3ccccc3s2)nnc2c1CCCN2c1ccc(-c2cnn(CC34CC5(C)CC(C)(C3)CC(OCCN(C)CC(=O)O)(C5)C4)c2C)c(C(=O)O)n1 [P48, 6-[3-(1,3-benzothiazol-2-ylamino)-4-methyl-6,7-dihydro-5H-pyrido[2,3-c]pyridazin-8-yl]-3-[1-[[3-[2-[carboxymethyl(methyl)amino]ethoxy]-5,7-dimethyl-1-adamantyl]methyl]-5-methyl-pyrazol-4-yl]pyridine-2-carboxylic acid]	2.27 nM	2.79 nM	2.53 nM			
Cc1c(Nc2nc3ccccc3s2)nnc2c1CCCN2c1ccc(-c2cnn(C[C@]34C[C@]5(C)C[C@](C)(C3)C[C@@](OCCN3CCN(C(C)C)CC3)(C5)C4)c2C)c(C(=O)O)n1 [P32, 6-[3-(1,3-benzothiazol-2-ylamino)-4-methyl-6,7-dihydro-5H-pyrido[2,3-c]pyridazin-8-yl]-3-[1-[[3-[2-(4-isopropylpiperazin-1-yl)ethoxy]-5,7-dimethyl-1-adamantyl]methyl]-5-methyl-pyrazol-4-yl]pyridine-2-carboxylic acid]	0.24 nM	0.22 nM	0.23 nM			
Cc1c(Nc2nc3ccccc3s2)nnc2c1CCCN2c1ccc(-c2cnn(C[C@]34C[C@]5(C)C[C@](C)(C3)C[C@@](OCCN3CCOCC3)(C5)C4)c2C)c(C(=O)O)n1 [P39, 6-[3-(1,3-benzothiazol-2-ylamino)-4-methyl-6,7-dihydro-5H-pyrido[2,3-c]pyridazin-8-yl]-3-[1-[[3,5-dimethyl-7-(2-morpholinoethoxy)-1-adamantyl]methyl]-5-methyl-pyrazol-4-yl]pyridine-2-carboxylic acid]	0.21 nM	0.34 nM	0.28 nM			
Cc1c(Nc2nc3ccccc3s2)nnc2c1CCCN2c1ccc(-c2cnn(C[C@]34C[C@]5(C)C[C@](C)(C3)C[C@@](OCCN(C)C)(C5)C4)c2C)c(C(=O)O)n1 [P27, 6-{3-[(1,3-benzothiazol-2-yl)amino]-4-methyl-6,7-dihydropyrido[2,3-c]pyridazin-8(5H)-yl}-3-[1-({3-[2-(dimethylamino)ethoxy]-5,7-dimethyladamantan-1-yl}methyl)-5-methyl-1H-pyrazol-4-yl]pyridine-2-carboxylic acid]	0.22 nM	0.3 nM	0.26 nM			
Cc1c(Nc2nc3ccccc3s2)nnc2c1CCCN2c1ccc(-c2cnn(CC34CC5(C)CC(C)(C3)CC(OCCN3CCCCC3)(C5)C4)c2C)c(C(=O)O)n1 [P38, 6-[3-(1,3-benzothiazol-2-ylamino)-4-methyl-6,7-dihydro-5H-pyrido[2,3-c]pyridazin-8-yl]-3-[1-[[3,5-dimethyl-7-[2-(1-piperidyl)ethoxy]-1-adamantyl]methyl]-5-methyl-pyrazol-4-yl]pyridine-2-carboxylic acid]	0.19 nM	0.33 nM	0.26 nM			
Cc1c(Nc2nc3ccccc3s2)nnc2c1CCCN2c1ccc(-c2cnn(CC34CC5(C)CC(C)(CC(CCCNCC(=O)O)(C5)C3)C4)c2C)c(C(=O)O)n1 [P53, 6-[3-(1,3-benzothiazol-2-ylamino)-4-methyl-6,7-dihydro-5H-pyrido[2,3-c]pyridazin-8-yl]-3-[1-[[3-[3-(carboxymethylamino)propyl]-5,7-dimethyl-1-adamantyl]methyl]-5-methyl-pyrazol-4-yl]pyridine-2-carboxylic acid]	37.7 nM	35 nM	36.4 nM			
Cc1cc(N(C)c2nc(C(=O)[O-])c(CCCOc3ccc(C#CC[N+](C)(C)Cc4ccc(O[C@@H]5O[C@H](C(=O)O)[C@@H](O)[C@H](O)[C@H]5O)c(NC(=O)CCNC(=O)CCOCCN5C(=O)CC(C)C5=O)c4)cc3F)s2)nnc1Nc1nc2ccccc2s1 (stereo partly drawn) [Ab C - L108A-P2]				2.1 nM	0.97 nM	1.54 nM
Cc1ccc2sc(Nc3nnc4c(c3C)CCCN4c3ccc(-c4cnn(C[C@]56C[C@]7(C)C[C@](C)(C5)C[C@@](OCCN5CCCC5)(C7)C6)c4C)c(C(=O)O)n3)nc2c1 [P42, 3-[1-[[3,5-dimethyl-7-(2-pyrrolidin-1-ylethoxy)-1-adamantyl]methyl]-5-methyl-pyrazol-4-yl]-6-[4-methyl-3-[(5-methyl-1,3-benzothiazol-2-yl)amino]-6,7-dihydro-5H-pyrido[2,3-c]pyridazin-8-yl]pyridine-2-carboxylic acid]	9.4 nM	12.9 nM	11.2 nM			
CNCC#Cc1ccc(OCCCc2sc(N3CCCc4c3nnc(Nc3nc5ccccc5s3)c4C)nc2C(=O)O)c(F)c1 [P3, 2-{3-[(1,3-Benzothiazol-2-yl)amino]-4-methyl-5H,6H,7H,8H-pyrido[2,3-c]pyridazin-8-yl}-5-(3-{2-fluoro-4-[3-(methylamino)prop-1-yn-1-yl]phenoxy}propyl)-1,3-thiazole-4-carboxylic acid]	4 nM	28 nM	16 nM			
Cc1c(Nc2nc3ccccc3s2)nnc2c1CCCN2c1ccc(-c2cnn(CC34CC5(C)CC(C)(C3)CC(OCCN3CCCC3)(C5)C4)c2C)c(C(N)=O)n1 [P76, 6-[3-(1,3-benzothiazol-2-ylamino)-4-methyl-6,7-dihydro-5H-pyrido[2,3-c]pyridazin-8-yl]-3-[1-[[3,5-dimethyl-7-(2-pyrrolidin-1-ylethoxy)-1-adamantyl]methyl]-5-methyl-pyrazol-4-yl]pyridine-2-carboxamide]	2 nM	3.87 nM	2.94 nM			
